Experimental data: US12059464B2, “Combination therapy involving antibodies against Claudin 18.2 for treatment of cancer” (Astellas Pharma Inc., priority 2012, dated 2024)

Tests used:
[1] = tested on: NUGC-4 gastric cancer cells; assay: IMAB362-mediated ADCC on chemotherapy-pretreated NUGC-4 cells; type: cell-based, human; settings: NUGC-4 pretreated with 5-FU+OX, EOF or FLO for 96 hours
Description: IMAB362-mediated ADCC was investigated using NUGC-4 gastric cancer cells as target, which were either pretreated with 10 ng/ml 5-FU and 500 ng/ml oxaliplatin (5-FU+OX), 10 ng/ml epirubicin, 500 ng/ml oxaliplatin and 10 ng/ml 5-FU (EOF) or 10 ng/ml 5-FU, 50 ng/ml folinic acid and 500 ng/ml oxaliplatin (FLO) for 96 hours (effector:target ratio 40:1) or untreated. EC50 values were obtained from 7 healthy donors for untreated and EOF, FLO or 5-FU+OX pretreated NUGC-4 cells.

[2] = tested on: NUGC-4 cells expressing CLDN18.2; assay: IMAB362 ADCC on NUGC-4 cells with PBMCs cultivated with IL-2 with or w/o ZA (luciferase assay); type: cell-based, human; settings: PBMCs cultivated for 14 days with ZA/IL-2; IMAB362 0.26 ng/ml-200 μg/ml
Description: Specific killing was determined in luciferase assays; cf. FIG. 14a. […] NUGC-4 served as target cells.

[3] = tested on: CLDN18.2-positive (NUGC-4, KATO III) and negative (SK-BR-3) human target cell lines; assay: IMAB362 ADCC with ZA/IL-2 expanded effector cells on CLDN18.2-positive and negative target cell lines; type: cell-based
Description: These effector cell cultures were used in ADCC assays with CLDN18.2-positive (NUGC-4, KATO III) and negative (SK-BR-3) human target cell lines (E:T ratio 40:1). […] ADCC was measured in luciferase assays; cf. FIG. 15a. […] FIG. 15b. Same experiment as described in (a) was performed using NUGC-4 as target cells; cf. FIG. 15c. […] A purity of more than 97.0% Vγ9Vδ2 T cells in lymphocytes was obtained.

NUGC-4 xenografts = assay: In vivo tumor targeting of Dyelight 680-labeled antibodies (fluorescence imaging); parameters: species or system nude mice
[4] = tested on: HEK293~CLDN18.2 transfectants; assay: Early treatment of HEK293~CLDN18.2 tumor xenografts; type: in vivo, nude mice; settings: 200 μg twice per week for 6 weeks i.v./i.p., start 3 days after inoculation
Source text: (§1) Moreover, advanced tumor treatment experiments were initiated up to 9 days after tumor cell inoculation when tumors had reached volumes of about 60-120 mm^3.
Nude mice were subcutaneously inoculated with 1×10^7 HEK293˜CLDN18.2 transfectants. Treatment of 10 mice per group started 3 days after tumor inoculation. […] Not only time to death was prolonged, but 4 of 10 mice survived the entire observation period of 210 days.

[5] = tested on: HEK293~CLDN18.2 tumor xenografts; assay: Treatment of advanced HEK293~CLDN18.2 tumor xenografts; type: in vivo, nude mice
Source text: as §1
(§2) Treatment of 9 to 10 mice per group was initiated when mean tumor volumes reached 88 mm^3 (62-126 mm^3). […] All mice in the groups treated with either PBS or isotype control died within 50-100 days. […] Three of these mice survived the entire observation period (FIG. 20). Importantly, antitumoral efficacy in vivo depends on the presence of the target on the tumor cells.

[6] = tested on: CLDN18.2-negative HEK293 tumor cells; assay: IMAB362 treatment of mice engrafted with CLDN18.2-negative tumor cells; type: in vivo; settings: CLDN18.2-negative tumors
Source text: as §2

[7] = tested on: NUGC-4~CLDN18.2 xenografts; assay: IMAB362 immunotherapy of NUGC-4~CLDN18.2 xenografts; parameters: species or system mice; settings: mouse, in vivo
[8] = tested on: NUGC-4~CLDN18.2 xenograft tumors; assay: Combination therapy with IMAB362 and EOF regimen on NUGC-4~CLDN18.2 xenografts; type: in vivo, nude mice; settings: chemotherapy day 3, 10, 17, 24; IMAB362 weekly
Description: Mice were treated on day 3, 10, 17 and 24 with chemotherapeutic agents. IMAB362 treatment was continued weekly.

[9] = tested on: CLDN18.2-transfected HEK293 cells; assay: IMAB362 with ZA/IL-2 induced Vγ9Vδ2 T cells on HEK293~CLDN18.2 tumors in NSG mice; type: in vivo; settings: 200 μg IMAB362 semi-weekly in the presence of human γδ T cells and ZA (plus IL-2)
Description: NSG mice lack mature T cells, B cells, natural killer (NK) cells, multiple cytokine signaling pathways, and they have many defects in innate immunity, whereas the niches in the primary and secondary immunological tissues are permissive to colonization by human immune cells.
NSG mice were inoculated subcutaneously with 1×10^7 CLDN18.2-transfected HEK293 cells. On the same day, mice received 8×10^6 human PBMCs enriched for Vγ9Vδ2 T cells, which were cultured for 14 days in ZA-supplemented medium. […] To maintain human T cells functional, IL-2 was administered semi-weekly and ZA weekly. […] In addition to 9 mice treated as described, two control groups of mice were established.

[10] = tested on: CLS-103~cldn18.2 allograft tumors; assay: Combination therapy with IMAB362 and EOF on CLS-103~cldn18.2 allograft tumors; type: in vivo, NMRI mice; settings: EOF i.p. day 3, 10, 17, 24; IMAB362 800 μg i.v.; IL-2 3000 IE s.c. semi-weekly
Source text: CLS-103˜cldn18.2 allograft tumors were inoculated by injection of 1×10^6 CLS-103˜cldn18.2 cells subcutaneous into the flank of 10 NMRI mice for each treatment group. […] After end of chemotherapy, IMAB362 and IL-2 treatment was continued for the whole observation period. Tumor size and animal health were monitored semi-weekly.

[11] = biological target: first extracellular domain (ECD1) of CLDN18.2 (Homo sapiens, UniProt P56856); assay: Binding of IMAB362 to CLDN18.2
[12] = tested on: CLDN18.2-positive cancer cell lines; assay: IMAB362 treatment of mice bearing CLDN18.2-positive cancer cell lines; settings: mouse, in vivo
[13] = Repeated dose toxicity study in mice; type: in vivo; settings: weekly administration for 3 months, highest dose levels 400 mg/kg
Source text: (§3) This compartimentalization is lost upon malignant transformation rendering the epitope drugable by IMAB362.

[14] = Repeated dose toxicity studies in cynomolgus monkeys; type: in vivo; settings: up to 5 weekly applications of up to 100 mg/kg
Source text: as §3

[15] = Toxicity and PK/TK profile studies (all toxicity studies); type: in vivo, mice and cynomolgus monkeys
Source text: as §3

[16] = Phase I clinical study, single intravenous administration; type: in vivo, human
Source text: IMAB362 is in early clinical testing. A phase I clinical study has been conducted in human. […] In an ongoing phase IIa clinical study IMAB362 is given repetitively.

[17] = tested on: NUGC-4 gastric cancer cells; assay: NUGC-4 gastric tumor xenograft model
Source text: Tumor sizes were monitored twice weekly.
Mice were stratified size-dependently into treatment groups (FIG. 21).

[18] = tested on: NCI-N87~CLDN18.2 xenograft tumors; assay: IMAB362 immunotherapy of NCI-N87~CLDN18.2 gastric carcinoma xenografts
Source text: NCI-N87˜CLDN18.2 xenograft tumors were inoculated subcutaneously by injection of 1×10^7 NCI-N87˜CLDN18.2 cells into the flank of 8 nude mice (female, 6 weeks old) per treatment group. […] Intravenous administration was continued weekly for the whole observation time. Tumor size and animal health was monitored semi-weekly. […] Mice were sacrificed, when tumor reached a volume of 1400 mm^3

[19] = tested on: NCI-N87~CLDN18.2 xenograft tumors; assay: Combination therapy with IMAB362 and EOF regimen on NCI-N87~CLDN18.2 xenografts
Description: NCI-N87˜CLDN18.2 xenograft tumors were inoculated by injection of 1×10^7 NCI-N87˜CLDN18.2 cells subcutaneous into the flank of 9 mice for each treatment group. […] Tumor size and animal health was monitored semi-weekly. […] The size of s.c. tumors was measured twice weekly (mean+SEM; *p<0.05). […] Mice were sacrificed, when tumor reached a volume of 1400 mm^3.

IMAB362: chimeric IgG1 antibody directed against CLDN18.2, developed by Ganymed Pharmaceuticals AG
maximal lysis in IMAB362-mediated ADCC versus untreated target cells [1]: higher maximal lysis
ADCC activity against CLDN18.2-positive NUGC-4 cells [2]: Strong IMAB362-dependent ADCC activity
ADCC activity with purified (>97%) Vγ9Vδ2 T cells ([3]; NUGC-4 targets, cells sorted from ZA/IL-2-cultured PBMC on day 14): retained and partly improved
ADCC activity on CLDN18.2-positive versus CLDN18.2-negative cell lines ([3]; ZA/IL-2 cultured effector cells, E:T ratio 40:1): Strong ADCC activity against CLDN18.2-positive, but not CLDN18.2-negative human tumor cell lines
localisation of labeled antibody, live imaging (NUGC-4 xenografts; 24 hours after i.v. injection, 80 μg Dyelight 680-labeled antibody): accumulates strongly and exclusively in the tumor xenografts
retention of labeled antibody signal in tumor (NUGC-4 xenografts; 120 hours after injection): detectable in comparable intensity even after 120 hours
mice surviving the entire observation period of 210 days [4]: 4 of 10
median survival time ([5]; 200 μg twice per week for 6 weeks, start at mean tumor volume 88 mm^3, controls 25 days): 47 days
mice surviving the entire observation period ([5]; 9 to 10 mice per group): Three
antitumoral effects [6]: No antitumoral effects
survival [7]: significantly (p<0.05) longer survival
tumor sizes at day 14 of treatment [7]: significant (p<0.05) smaller tumor sizes
tumor growth [8]: inhibited significantly the tumor growth
outgrowth of CLDN18.2-positive tumors [9]: significantly inhibited and nearly abrogated
tumor growth inhibition [10]: no significant tumor growth inhibition
affinity and specificity for CLDN18.2 ECD1 [11]: high affinity and specificity
mice showing regression of their tumor [12]: up to 40%
tolerability of repeated i.v. doses [13]: well tolerated
tolerability of repeated i.v. doses [14]: well tolerated
gastric toxicity ([15]; any toxicity study): no gastric toxicity
adverse effects on male or female reproductive organs ([15]; in vivo): No adverse effects
immune activation and cytokine release ([15]; in vivo): does not induce immune activation and cytokine release
systemic or local toxicity ([15]; repeated i.v. doses): No signs of systemic or local toxicity
tolerability in patients ([16]; single i.v. administration, 33-1000 mg/m^2, observed for 28 days): very well tolerated
tumor markers in one patient ([16]; within 4 weeks after treatment): decreased significantly
tumor growth compared to controls ([17]; 200 μg twice weekly i.v./i.p. starting 6 days after inoculation, p<0.05): significant inhibited
tumor volumes at day 21 after tumor inoculation compared to control mice ([17]; p<0.05): significant smaller
median survival time ([17]; treatment initiated at about 109 mm^3, versus 25 days, non-significant): 31 days
tumor growth rate ([17]; treatment initiated at mean tumor size of about 109 mm^3): significantly reduce tumor growth rate
tumor growth ([18]; 800 μg i.v. weekly from day 5, versus saline): inhibited highly significant (p<0.001) tumor growth
survival time ([18]; 800 μg i.v. weekly, sacrifice at 1400 mm^3): significantly (p<0.05) longer survival time
tumor growth ([19]; EOF i.p. day 4, 11, 18, 25, IMAB362 800 μg i.v. weekly): highly significant suppressed tumor growth
median survival ([19]; saline control 59 days, sacrifice at 1400 mm^3): 76 days
